IC50 data for 32 molecules are collected here from patent US11192891B2, “Diazaspiro ROCK inhibitors” (BRISTOL-MYERS SQUIBB COMPANY, priority 2017, dated 2021).

pIC50: −log10 of the molar value.

ROCK2, sequence (O75116 whole entry, species assumed): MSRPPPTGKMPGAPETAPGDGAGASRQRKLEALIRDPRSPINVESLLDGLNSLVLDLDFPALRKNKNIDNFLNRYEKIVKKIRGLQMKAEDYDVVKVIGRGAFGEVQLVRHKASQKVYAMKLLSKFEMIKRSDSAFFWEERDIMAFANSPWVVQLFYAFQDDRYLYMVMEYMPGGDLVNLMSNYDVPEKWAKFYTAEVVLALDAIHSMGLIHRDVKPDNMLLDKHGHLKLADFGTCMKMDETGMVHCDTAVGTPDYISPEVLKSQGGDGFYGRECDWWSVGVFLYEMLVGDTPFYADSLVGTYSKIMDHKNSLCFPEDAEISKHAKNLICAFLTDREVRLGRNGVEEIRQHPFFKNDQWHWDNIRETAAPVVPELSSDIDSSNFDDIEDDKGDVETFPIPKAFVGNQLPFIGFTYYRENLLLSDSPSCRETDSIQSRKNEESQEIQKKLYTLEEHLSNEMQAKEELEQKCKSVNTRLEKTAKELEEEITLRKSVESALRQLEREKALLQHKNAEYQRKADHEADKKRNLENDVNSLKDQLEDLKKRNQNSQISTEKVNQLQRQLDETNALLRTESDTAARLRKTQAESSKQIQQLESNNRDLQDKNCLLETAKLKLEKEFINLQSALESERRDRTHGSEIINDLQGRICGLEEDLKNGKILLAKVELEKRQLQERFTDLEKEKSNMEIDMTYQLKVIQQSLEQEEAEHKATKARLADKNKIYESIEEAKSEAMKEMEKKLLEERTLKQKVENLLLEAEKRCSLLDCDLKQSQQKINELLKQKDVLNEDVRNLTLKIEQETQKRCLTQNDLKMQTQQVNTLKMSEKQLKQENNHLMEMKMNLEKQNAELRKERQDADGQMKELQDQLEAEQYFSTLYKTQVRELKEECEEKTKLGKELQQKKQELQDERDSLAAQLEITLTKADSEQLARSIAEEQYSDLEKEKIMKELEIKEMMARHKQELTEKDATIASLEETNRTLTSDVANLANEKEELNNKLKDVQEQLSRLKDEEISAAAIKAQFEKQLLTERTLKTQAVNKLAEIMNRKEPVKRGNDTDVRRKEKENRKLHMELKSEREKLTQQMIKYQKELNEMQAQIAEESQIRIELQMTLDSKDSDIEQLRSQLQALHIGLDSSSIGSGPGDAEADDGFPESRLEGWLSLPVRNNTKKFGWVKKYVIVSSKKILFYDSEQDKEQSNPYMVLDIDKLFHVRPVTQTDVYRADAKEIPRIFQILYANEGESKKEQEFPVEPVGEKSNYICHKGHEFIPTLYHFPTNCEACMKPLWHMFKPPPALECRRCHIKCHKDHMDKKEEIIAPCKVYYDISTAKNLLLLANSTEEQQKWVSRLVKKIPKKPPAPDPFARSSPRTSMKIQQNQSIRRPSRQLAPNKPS

The assay addresses ROCK2 (Homo sapiens, UniProt O75116). As to the kind of experiment: ROCK kinase inhibition assay, FITC peptide substrate, LABCHIP 3000 readout. It is filed as biochemical. As to conditions: 5 μM ATP, 1.5 μM peptide substrate. As for the experimental part: Compounds were dissolved in DMSO so that the final concentration of DMSO was <2%, and the reaction was initiated with Rho kinase variants. After incubation, the reaction was terminated by the addition of EDTA and the phosphorylated and non-phosphorylated peptides separated using a LABCHIP® 3000 Reader (Caliper Life Sciences). […] Compounds were tested in dose-response format, and the inhibition of kinase activity was calculated at each concentration of compound.
As a reminder, the pIC50 is the negative decadic logarithm of the IC50, by convention in mol/L. On to `COc1cc(N2CCC3(CCN(C(=O)c4ccc(-n5cncn5)nc4)CC3)C2=O)ccc1-c1cn[nH]c1` [Example 145, 2-[3-methoxy-4-(1H-pyrazol-4-yl)phenyl]-8-[6-(1H-1,2,4-triazol-1-yl)pyridine-3-carbonyl]-2,8-diazaspiro[4.5]decan-1-one], for which the negative logarithm of the IC50 (pIC50) was 7.27.

Regarding `COc1cc(N2CCC3(CCN(C(=O)c4ccc(-c5cccnc5)cc4)CC3)C2=O)ccc1-c1cn[nH]c1` [Example 158, 2-[3-methoxy-4-(1H-pyrazol-4-yl)phenyl]-8-[4-(pyridin-3-yl)benzoyl]-2,8-diazaspiro[4.5]decan-1-one], the pIC50 was 8.39.

`COc1cc(N2CCC3(CCN(C(=O)c4ccc(-n5cnnn5)cc4)CC3)C2=O)ccc1-c1cn[nH]c1` [Example 118] had a pIC50 of 7.24.

As for `CCN(CC)c1ccc(C(=O)N2CCC3(CC2)CCN(c2ccc(-c4cn[nH]c4)c(OC)c2)C3=O)cc1` [Example 194, 8-[4-(diethylamino)benzoyl]-2-[3-methoxy-4-(1H-pyrazol-4-yl)phenyl]-2,8-diazaspiro[4.5]decan-1-one], the pIC50 is 8.28.

`COc1cc(N2CCC3(CCN(C(=O)c4ccc5nc(-c6ccncc6)[nH]c5c4)CC3)C2=O)ccc1-c1cn[nH]c1` [Example 182, 2-[3-methoxy-4-(1H-pyrazol-4-yl)phenyl]-8-[2-(pyridin-4-yl)-1H-1,3-benzodiazole-6-carbonyl]-2,8-diazaspiro[4.5]decan-1-one] had a pIC50 of 7.80.

Molecule `COc1ccccc1C(=O)N1CCC2(CC1)CCN(c1ccc(-c3cn[nH]c3)cc1)C2=O` [Example 3, 8-(2-methoxybenzoyl)-2-[4-(1H-pyrazol-4-yl)phenyl]-2,8-diazaspiro[4.5]decan-1-one] gave a pIC50 of 6.80.

As to `COc1cc(N2CCC3(CCN(S(=O)(=O)c4ccc5c(c4)C(=O)NC5=O)CC3)C2=O)ccc1-c1cn[nH]c1` [Example 210, 5-({2-[3-methoxy-4-(1H-pyrazol-4-yl)phenyl]-1-oxo-2,8-diazaspiro[4.5]decan-8-yl}sulfonyl)-2,3-dihydro-1H-isoindole-1,3-dione], the pIC50 is 5.64.

Molecule `COc1cc(N2CCC3(CCN(C(=O)c4ccc(N5CCCCC5=O)cc4)CC3)C2=O)ccc1-c1cn[nH]c1` [Example 142, 2-[3-methoxy-4-(1H-pyrazol-4-yl)phenyl]-8-[4-(2-oxopiperidin-1-yl)benzoyl]-2,8-diazaspiro[4.5]decan-1-one] showed a pIC50 of 8.06.

`CCc1ccc(C(=O)N2CCC3(CC2)CCN(c2ccc(-c4cn[nH]c4)c(OC)c2)C3=O)nc1` [Example 108, 8-(5-ethylpyridine-2-carbonyl)-2-[3-methoxy-4-(1H-pyrazol-4-yl)phenyl]-2,8-diazaspiro[4.5]decan-1-one] showed a pIC50 of 7.92.

For the molecule `COc1ccc(C(=O)N2CCC3(CC2)CC(=O)N(c2ccc(-c4cn[nH]c4)c(OC)c2)C3)cc1` [Example 47, 2-[3-methoxy-4-(1H-pyrazol-4-yl)phenyl]-8-(4-methoxybenzoyl)-2,8-diazaspiro[4.5]decan-3-one], the pIC50 is 6.51.

Turning to `COc1ccc(C(=O)N2CCC3(CC2)CCN(c2ccc(-c4cn[nH]c4)c(OC)c2)C3=O)cc1Cl` [Example 22, 8-(3-chloro-4-methoxybenzoyl)-2-[3-methoxy-4-(1H-pyrazol-4-yl)phenyl]-2,8-diazaspiro[4.5]decan-1-one], the negative logarithm of the IC50 (pIC50) is 8.22.

On to `COc1cc(F)c(C(=O)N2CCC3(CC2)CCN(c2ccc(-c4cn[nH]c4)c(OC)c2)C3=O)c(F)c1` [Example 28, 8-(2,6-difluoro-4-methoxybenzoyl)-2-[3-methoxy-4-(1H-pyrazol-4-yl)phenyl]-2,8-diazaspiro[4.5]decan-1-one], for which the pIC50 is 8.30.

For the molecule `COc1cc(N2CCC3(CCN(C(=O)c4cc(C)n5nc[nH]c(=O)c45)CC3)C2=O)ccc1-c1cn[nH]c1` [Example 132, 2-[3-methoxy-4-(1H-pyrazol-4-yl)phenyl]-8-{7-methyl-4-oxo-3H,4H-pyrrolo[2,1-f][1,2,4]triazine-5-carbonyl}-2,8-diazaspiro[4.5]decan-1-one], the pIC50 is 8.52.

For the molecule `COc1cc(N2CCC3(CCN(C(=O)c4ccc(N5CCN(C(=O)OC(C)(C)C)CC5)cc4)CC3)C2=O)ccc1-c1cn[nH]c1` [Example 205, tert-butyl 4-(4-{2-[3-methoxy-4-(1H-pyrazol-4-yl)phenyl]-1-oxo-2,8-diazaspiro[4.5]decane-8-carbonyl}phenyl)piperazine-1-carboxylate], the negative logarithm of the IC50 (pIC50) is 8.05.

`COc1ccc(C(=O)N2CCC3(CC2)CCN(c2ccc(-c4cn[nH]c4)cc2)C3=O)cc1` [Example 4, 8-(4-methoxybenzoyl)-2-[4-(1H-pyrazol-4-yl)phenyl]-2,8-diazaspiro[4.5]decan-1-one] had a pIC50 of 7.68.

The molecule `COc1cc(N2CCC3(CCN(C(=O)c4cccc5cccnc45)CC3)C2=O)ccc1-c1cn[nH]c1` [Example 149, 2-[3-methoxy-4-(1H-pyrazol-4-yl)phenyl]-8-(quinoline-8-carbonyl)-2,8-diazaspiro[4.5]decan-1-one] gave a pIC50 of 6.60.

Molecule `COc1cc(N2CCC3(CCN(C(=O)c4ccc(N5CCN(Cc6cccc(Cl)c6)CC5)cc4)CC3)C2=O)ccc1-c1cn[nH]c1` [Example 186, 8-(4-{4-[(3-chlorophenyl)methyl]piperazin-1-yl}benzoyl)-2-[3-methoxy-4-(1H-pyrazol-4-yl)phenyl]-2,8-diazaspiro[4.5]decan-1-one] gave a pIC50 of 8.92.

Molecule `COc1cc(N2CCC3(CCN(C(=O)c4ccc(Cl)cc4F)CC3)C2=O)ccc1-c1cn[nH]c1` [Example 75, 8-(4-chloro-2-fluorobenzoyl)-2-[3-methoxy-4-(1H-pyrazol-4-yl)phenyl]-2,8-diazaspiro[4.5]decan-1-one] showed a pIC50 of 7.30.

Regarding `COc1cc(N2CCC3(CCN(S(=O)(=O)c4ccc(S(N)(=O)=O)cc4)CC3)C2=O)ccc1-c1cn[nH]c1` [Example 213, 4-({2-[3-methoxy-4-(1H-pyrazol-4-yl)phenyl]-1-oxo-2,8-diazaspiro[4.5]decan-8-yl}sulfonyl)benzene-1-sulfonamide], the negative-log IC50 (pIC50) was 6.34.

On to `COc1ccc(C(=O)N2CCC3(CC2)CCN(c2cccc(-c4ccc5cn[nH]c5c4)c2)C3=O)cc1` [Example 50], for which the pIC50 was 5.77.

Molecule `COc1cc(N2CCC3(CCN(C(=O)c4ccc(N5CCCNC5=O)cc4)CC3)C2=O)ccc1-c1cn[nH]c1` [Example 126, 2-[3-methoxy-4-(1H-pyrazol-4-yl)phenyl]-8-[4-(2-oxo-1,3-diazinan-1-yl)benzoyl]-2,8-diazaspiro[4.5]decan-1-one] showed a pIC50 of 8.11.

Molecule `COc1cc(N2CCC3(CCN(C(=O)c4ccc(N5CCNCC5)cc4)CC3)C2=O)ccc1-c1cn[nH]c1` [Example 130, 2-[3-methoxy-4-(1H-pyrazol-4-yl)phenyl]-8-[4-(piperazin-1-yl)benzoyl]-2,8-diazaspiro[4.5]decan-1-one] gave a pIC50 of 9.40.

As for `COc1cc(N2CCC3(CCN(C(=O)Nc4cccnc4)CC3)C2=O)ccc1-c1cn[nH]c1` [Example 214, 2-[3-methoxy-4-(1H-pyrazol-4-yl)phenyl]-1-oxo-N-(pyridin-3-yl)-2,8-diazaspiro[4.5]decane-8-carboxamide], the pIC50 was 5.83.

`COc1cc(N2CCC3(CCN(C(=O)c4ccc5c(c4)OCO5)CC3)C2=O)ccc1-c1cn[nH]c1` [Example 69, 8-(2H-1,3-benzodioxole-5-carbonyl)-2-[3-methoxy-4-(1H-pyrazol-4-yl)phenyl]-2,8-diazaspiro[4.5]decan-1-one] gave a pIC50 of 7.03.

As to `COc1cc(N2CCC3(CCN(C(=O)c4ccc(-c5nc(C)no5)cc4)CC3)C2=O)ccc1-c1cn[nH]c1` [Example 185, 2-[3-methoxy-4-(1H-pyrazol-4-yl)phenyl]-8-[4-(3-methyl-1,2,4-oxadiazol-5-yl)benzoyl]-2,8-diazaspiro[4.5]decan-1-one], the negative-log IC50 (pIC50) was 7.43.

`COc1cc(N2CCC3(CCN(C(=O)c4ccc(N5CCOC5=O)cc4)CC3)C2=O)ccc1-c1cn[nH]c1` [Example 141, 2-[3-methoxy-4-(1H-pyrazol-4-yl)phenyl]-8-[4-(2-oxo-1,3-oxazolidin-3-yl)benzoyl]-2,8-diazaspiro[4.5]decan-1-one] gave a pIC50 of 8.52.

As for `COc1cc(N2CCC3(CCN(C(=O)c4ccc5c(c4)CC(=O)N5)CC3)C2=O)ccc1-c1cn[nH]c1` [Example 177, 2-[3-methoxy-4-(1H-pyrazol-4-yl)phenyl]-8-(2-oxo-2,3-dihydro-1H-indole-5-carbonyl)-2,8-diazaspiro[4.5]decan-1-one], the negative-log IC50 (pIC50) is 7.11.

The molecule `COc1ccc(C(=O)N2CCC3(CC2)CCN(c2ccc(-c4cn[nH]c4)c(OC)c2)C3=O)c(OC)n1` [Example 80, 8-(2,6-dimethoxypyridine-3-carbonyl)-2-[3-methoxy-4-(1H-pyrazol-4-yl)phenyl]-2,8-diazaspiro[4.5]decan-1-one] gave a pIC50 of 7.00.

In turn, `COc1ccc2c(c1)cc(C(=O)N1CCC3(CC1)CCN(c1ccc(-c4cn[nH]c4)c(OC)c1)C3=O)n2C` [Example 156, 8-(5-methoxy-1-methyl-1H-indole-2-carbonyl)-2-[3-methoxy-4-(1H-pyrazol-4-yl)phenyl]-2,8-diazaspiro[4.5]decan-1-one] showed a pIC50 of 7.27.

In turn, `COc1cc(N2CCC3(CCN(C(=O)c4ccncc4)CC3)C2=O)ccc1-c1cn[nH]c1` [Example 56, 2-[3-methoxy-4-(1H-pyrazol-4-yl)phenyl]-8-(pyridine-4-carbonyl)-2,8-diazaspiro[4.5]decan-1-one] showed a negative-log IC50 (pIC50) of 6.36.

As to `COc1cc(N2CCC3(CCN(C(=O)c4ccc(N5CCOCC5)c(F)c4)CC3)C2=O)ccc1-c1cn[nH]c1` [Example 127, 8-[3-fluoro-4-(morpholin-4-yl)benzoyl]-2-[3-methoxy-4-(1H-pyrazol-4-yl)phenyl]-2,8-diazaspiro[4.5]decan-1-one], the pIC50 is 7.95.

`COc1cc(N2CCC3(CCN(C(=O)c4ccc(-c5ccncc5)cc4)CC3)C2=O)ccc1-c1cn[nH]c1` [Example 171, 2-[3-methoxy-4-(1H-pyrazol-4-yl)phenyl]-8-[4-(pyridin-4-yl)benzoyl]-2,8-diazaspiro[4.5]decan-1-one]: the pIC50 was 8.26.
